Measured values: PMC12621043, “Un-LOK-ing a New Approach for Conformational Selective Targeting of STK10 (LOK)” (ACS Medicinal Chemistry Letters, 2025)

What was measured:
Assay in all cases: DSF Tm panel
Format in all cases: binding
Conditions in all cases: 10 μM compound
[1] = molecular target: T1, CLK3A (Homo sapiens, UniProt P49761)
T1 construct: purchased in-house DSF kinase panel (SGC-style construct names; the trailing letter is the construct ID)
Experimental: (§1) The synthesized urea-based derivatives were evaluated in a panel of kinases by differential scanning fluorescence (DSF) to investigate their selectivity profile. A positive ΔT m in the DSF assay indicates stabilization of the protein upon ligand binding in comparison to its apo state, with higher thermal shifts generally correlating with stronger binding. For this purpose, we used our internal kinase selectivity panel (∼90 kinases) along with staurosporine as a positive control. […] This was also reflected in the overall low selectivity score (S) throughout the series, which is determined by the ratio between the number of kinases that are stabilized above 5 °C and the total number of kinases tested (Figure ). Motivated by these findings, we further validated the entire series by orthogonal binding and activity assays to determine the in vitro and cellular potency and selectivity of the developed series in comparison to the selected reference compounds. […]
(§2) was performed as previously described.[1,2] Briefly, recombinant protein kinase domains at a concentration of 2 μM were mixed with 10 μM compound in a buffer containing 20 mM HEPES, […]
(§3) probe (1 µl per mL). Subsequently, temperature-dependent protein unfolding profiles were […]
(§4) emission filters were set to 465 nm and 590 nm, respectively. The temperature was raised with a step rate of 3 °C per minute. […]
(§5) inflection point of the transition curve. […]
(§6) previously.[3] In brief, STK10, STK3, STK4 and SLK were obtained as plasmids cloned in […]
(§7) Plasmids were transfected into
(§8) KD concentration taken from TracerDB (tracerdb.org)[4] were pipetted into white 384-well

[2] = system: TAF1A
Experimental: as §1, §2, §3, §4, §5, §6, §7, §8

[3] = molecular target: T2, ULK1A (Homo sapiens, UniProt O75385)
T2 construct: purchased in-house DSF kinase panel (SGC-style construct names; the trailing letter is the construct ID)
T2 sequence (O75385 1-283): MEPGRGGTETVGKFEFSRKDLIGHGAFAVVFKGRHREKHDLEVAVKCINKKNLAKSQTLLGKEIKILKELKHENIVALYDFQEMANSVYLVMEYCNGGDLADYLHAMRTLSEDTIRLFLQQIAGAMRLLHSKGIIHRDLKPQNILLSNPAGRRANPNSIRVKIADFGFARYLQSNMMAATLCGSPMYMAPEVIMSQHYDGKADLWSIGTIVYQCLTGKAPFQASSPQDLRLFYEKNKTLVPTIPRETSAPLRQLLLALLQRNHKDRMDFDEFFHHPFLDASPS
Experimental: as §1, §2, §3, §4, §5, §6, §7, §8

[4] = molecular target: T3, EPHA5A (Homo sapiens, UniProt P54756)
T3 construct: purchased in-house DSF kinase panel (SGC-style construct names; the trailing letter is the construct ID)
T3 sequence (P54756 653-939): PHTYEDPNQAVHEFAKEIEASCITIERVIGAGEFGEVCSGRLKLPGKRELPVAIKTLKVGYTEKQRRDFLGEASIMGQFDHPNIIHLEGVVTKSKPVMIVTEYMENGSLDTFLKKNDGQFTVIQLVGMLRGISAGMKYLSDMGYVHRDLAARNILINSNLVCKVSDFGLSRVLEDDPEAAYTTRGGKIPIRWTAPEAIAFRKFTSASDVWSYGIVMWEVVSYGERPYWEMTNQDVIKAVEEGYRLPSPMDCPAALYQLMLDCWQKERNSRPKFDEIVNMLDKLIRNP
Experimental: as §1, §2, §3, §4, §5, §6, §7, §8

[5] = molecular target: T4, BRD4 (BRD4A) (Homo sapiens, UniProt O60885)
T4 construct: purchased in-house DSF kinase panel (SGC-style construct names; the trailing letter is the construct ID)
Experimental: as §1, §2, §3, §4, §5, §6, §7, §8

[6] = molecular target: T5, STK17AA (Homo sapiens, UniProt Q9UEE5)
T5 construct: purchased in-house DSF kinase panel (SGC-style construct names; the trailing letter is the construct ID)
T5 sequence (Q9UEE5 61-321): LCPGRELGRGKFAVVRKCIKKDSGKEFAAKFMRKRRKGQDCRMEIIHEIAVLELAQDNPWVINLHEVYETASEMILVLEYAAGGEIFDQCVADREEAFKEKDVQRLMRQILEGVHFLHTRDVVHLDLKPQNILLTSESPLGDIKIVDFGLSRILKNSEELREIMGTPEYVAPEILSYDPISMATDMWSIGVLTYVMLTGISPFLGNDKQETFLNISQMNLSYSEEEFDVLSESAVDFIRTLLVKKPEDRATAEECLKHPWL
Experimental: as §1, §2, §3, §4, §5, §6, §7, §8

[7] = molecular target: T6, STK6A (Homo sapiens, UniProt O14965)
T6 construct: purchased in-house DSF kinase panel (SGC-style construct names; the trailing letter is the construct ID)
T6 sequence (O14965 122-403): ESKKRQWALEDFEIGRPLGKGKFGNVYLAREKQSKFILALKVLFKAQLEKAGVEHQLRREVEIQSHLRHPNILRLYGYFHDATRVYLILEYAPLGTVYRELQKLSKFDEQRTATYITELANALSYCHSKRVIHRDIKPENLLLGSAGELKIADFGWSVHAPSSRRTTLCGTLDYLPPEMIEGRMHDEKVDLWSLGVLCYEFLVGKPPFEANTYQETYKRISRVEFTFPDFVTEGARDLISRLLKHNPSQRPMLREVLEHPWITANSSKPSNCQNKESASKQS
Experimental: as §1, §2, §3, §4, §5, §6, §7, §8

[8] = molecular target: T7, GSK3BB (Homo sapiens, UniProt P49841)
T7 construct: purchased in-house DSF kinase panel (SGC-style construct names; the trailing letter is the construct ID)
T7 sequence (P49841 35-386): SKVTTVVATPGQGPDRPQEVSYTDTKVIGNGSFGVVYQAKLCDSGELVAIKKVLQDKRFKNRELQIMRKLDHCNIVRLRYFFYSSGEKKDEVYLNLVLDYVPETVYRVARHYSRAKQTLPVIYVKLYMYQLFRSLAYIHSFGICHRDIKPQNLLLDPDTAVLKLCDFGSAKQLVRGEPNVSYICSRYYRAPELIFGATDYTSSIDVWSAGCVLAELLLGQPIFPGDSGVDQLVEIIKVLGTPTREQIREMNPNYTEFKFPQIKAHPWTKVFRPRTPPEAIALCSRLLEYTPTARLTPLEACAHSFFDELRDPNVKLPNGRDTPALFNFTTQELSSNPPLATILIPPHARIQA
Experimental: as §1, §2, §3, §4, §5, §6, §7, §8

[9] = molecular target: T8, FGFR1B (Homo sapiens, UniProt P11362)
T8 construct: purchased in-house DSF kinase panel (SGC-style construct names; the trailing letter is the construct ID)
T8 sequence (P11362 456-767): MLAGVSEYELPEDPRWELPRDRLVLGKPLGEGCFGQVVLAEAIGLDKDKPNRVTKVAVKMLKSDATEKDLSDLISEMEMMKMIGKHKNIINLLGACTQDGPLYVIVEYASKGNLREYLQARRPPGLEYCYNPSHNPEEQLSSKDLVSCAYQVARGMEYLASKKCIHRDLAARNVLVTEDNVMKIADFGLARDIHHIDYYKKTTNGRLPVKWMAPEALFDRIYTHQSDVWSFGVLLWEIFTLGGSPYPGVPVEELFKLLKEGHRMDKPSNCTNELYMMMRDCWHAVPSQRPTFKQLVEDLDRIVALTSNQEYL
Experimental: as §1, §2, §3, §4, §5, §6, §7, §8

[10] = molecular target: T9, CHEK2A (Homo sapiens, UniProt O96017)
T9 construct: purchased in-house DSF kinase panel (SGC-style construct names; the trailing letter is the construct ID)
T9 sequence (O96017 210-531): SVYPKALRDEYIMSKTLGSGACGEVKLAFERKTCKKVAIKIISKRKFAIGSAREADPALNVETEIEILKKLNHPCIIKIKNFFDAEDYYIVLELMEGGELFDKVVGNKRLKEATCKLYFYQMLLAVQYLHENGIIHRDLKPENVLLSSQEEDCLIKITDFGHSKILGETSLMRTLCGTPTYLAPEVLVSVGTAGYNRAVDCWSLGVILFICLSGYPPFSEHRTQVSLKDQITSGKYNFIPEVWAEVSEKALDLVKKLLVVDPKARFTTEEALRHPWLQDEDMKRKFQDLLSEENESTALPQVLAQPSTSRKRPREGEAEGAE
Experimental: as §1, §2, §3, §4, §5, §6, §7, §8

[11] = molecular target: T10, PIM3A (Homo sapiens, UniProt Q86V86)
T10 construct: purchased in-house DSF kinase panel (SGC-style construct names; the trailing letter is the construct ID)
Experimental: as §1, §2, §3, §4, §5, §6, §7, §8

[12] = molecular target: T11, BMX (BMXA) (Homo sapiens, UniProt P51813)
T11 construct: purchased in-house DSF kinase panel (SGC-style construct names; the trailing letter is the construct ID)
T11 sequence (P51813 411-675): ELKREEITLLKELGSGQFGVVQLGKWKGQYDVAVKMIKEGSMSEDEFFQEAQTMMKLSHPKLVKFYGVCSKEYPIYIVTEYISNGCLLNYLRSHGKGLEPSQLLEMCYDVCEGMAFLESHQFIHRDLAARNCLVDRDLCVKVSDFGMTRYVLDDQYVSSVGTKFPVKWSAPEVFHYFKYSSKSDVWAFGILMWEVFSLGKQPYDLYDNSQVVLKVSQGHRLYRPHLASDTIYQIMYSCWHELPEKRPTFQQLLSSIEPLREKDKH
Experimental: as §1, §2, §3, §4, §5, §6, §7, §8

[13] = molecular target: T12, K2A2 (CSNK2A2A) (Homo sapiens, UniProt P19784)
T12 construct: purchased in-house DSF kinase panel (SGC-style construct names; the trailing letter is the construct ID)
T12 sequence (P19784 whole entry): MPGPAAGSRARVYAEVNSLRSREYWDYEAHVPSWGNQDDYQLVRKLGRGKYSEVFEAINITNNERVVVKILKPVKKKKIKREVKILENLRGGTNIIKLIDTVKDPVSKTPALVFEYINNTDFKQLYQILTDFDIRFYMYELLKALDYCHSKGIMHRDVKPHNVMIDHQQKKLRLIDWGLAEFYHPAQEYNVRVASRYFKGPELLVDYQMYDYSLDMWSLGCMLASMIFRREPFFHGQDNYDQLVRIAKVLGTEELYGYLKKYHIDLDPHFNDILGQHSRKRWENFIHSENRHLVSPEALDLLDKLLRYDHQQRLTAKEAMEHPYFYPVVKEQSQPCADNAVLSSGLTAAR
Experimental: as §1, §2, §3, §4, §5, §6, §7, §8

[14] = molecular target: T13, PAK4A (Homo sapiens, UniProt O96013)
T13 construct: purchased in-house DSF kinase panel (SGC-style construct names; the trailing letter is the construct ID)
T13 sequence (O96013 291-591): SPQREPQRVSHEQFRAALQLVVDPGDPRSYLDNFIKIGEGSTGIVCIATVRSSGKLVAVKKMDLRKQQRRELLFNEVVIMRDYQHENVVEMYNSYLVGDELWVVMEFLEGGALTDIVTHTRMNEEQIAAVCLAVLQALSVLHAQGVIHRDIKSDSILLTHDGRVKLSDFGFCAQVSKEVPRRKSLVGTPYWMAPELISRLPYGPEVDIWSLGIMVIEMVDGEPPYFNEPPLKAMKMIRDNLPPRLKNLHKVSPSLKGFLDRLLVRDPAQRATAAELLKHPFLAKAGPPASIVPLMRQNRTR
Experimental: as §1, §2, §3, §4, §5, §6, §7, §8

[15] = molecular target: T14, TTKA (Homo sapiens, UniProt P33981)
T14 construct: purchased in-house DSF kinase panel (SGC-style construct names; the trailing letter is the construct ID)
T14 sequence (P33981 519-808): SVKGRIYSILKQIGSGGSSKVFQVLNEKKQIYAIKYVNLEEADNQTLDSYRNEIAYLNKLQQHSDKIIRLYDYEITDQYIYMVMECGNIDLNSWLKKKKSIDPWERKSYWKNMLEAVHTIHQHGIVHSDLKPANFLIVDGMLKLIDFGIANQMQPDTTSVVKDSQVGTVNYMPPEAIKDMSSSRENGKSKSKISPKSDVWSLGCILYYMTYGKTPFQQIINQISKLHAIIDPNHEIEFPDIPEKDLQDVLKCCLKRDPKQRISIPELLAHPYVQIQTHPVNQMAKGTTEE
Experimental: as §1, §2, §3, §4, §5, §6, §7, §8

T1 sequence (P49761 127-484): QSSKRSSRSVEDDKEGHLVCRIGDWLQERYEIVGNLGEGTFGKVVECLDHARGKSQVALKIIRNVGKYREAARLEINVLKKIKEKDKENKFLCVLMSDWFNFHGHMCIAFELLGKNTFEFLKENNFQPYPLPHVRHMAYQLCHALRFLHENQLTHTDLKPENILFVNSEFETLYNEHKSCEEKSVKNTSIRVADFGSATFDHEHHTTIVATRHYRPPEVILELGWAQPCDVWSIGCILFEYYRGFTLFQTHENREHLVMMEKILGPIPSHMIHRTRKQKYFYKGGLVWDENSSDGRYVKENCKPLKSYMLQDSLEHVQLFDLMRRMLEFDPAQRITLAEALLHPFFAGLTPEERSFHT

Row | ΔTm at 10 µM [1] | ΔTm at 10 µM [3] | ΔTm at 10 µM [4] | ΔTm at 10 µM [5] | ΔTm at 10 µM [6] | ΔTm at 10 µM [7] | ΔTm at 10 µM [8] | ΔTm at 10 µM [9] | ΔTm at 10 µM [10] | ΔTm at 10 µM [11] | ΔTm at 10 µM [12] | ΔTm at 10 µM [13] | ΔTm at 10 µM [14] | ΔTm at 10 µM [15] | SMILES | ΔTm TAF1A [2]
1 | 0.1 °C | 0.3 °C | 0.1 °C | 1.3 °C | 2.3 °C | 6.7 °C | 1 °C | 0.6 °C | 5.3 °C | 2.4 °C | 1.2 °C | 4 °C | 0 °C | 1.8 °C | O=C(NCc1ccccc1Cl)Nc1ccc2cc1OCCOCCNc1ccn3ncc-2c3n1 [compound 17] | 0,5 °C
2 | 0.3 °C | 0.6 °C | 0.7 °C | 1.8 °C | 1.6 °C | 7.4 °C | 0.6 °C | 0.9 °C | 3.6 °C | 3.3 °C | 1.6 °C | 3 °C | 0.8 °C | 1.2 °C | O=C(NCc1ccc(Cl)cc1Cl)Nc1ccc2cc1OCCOCCNc1ccn3ncc-2c3n1 [compound 20] | 0,6 °C
3 | 0.6 °C | 0.2 °C | 0.7 °C | 2 °C | 2 °C | 6.9 °C | 0.2 °C | 1.1 °C | 5 °C | 3.9 °C | 1.4 °C | 4.2 °C | 0.9 °C | 1.8 °C | O=C(NCc1ccc(Cl)cc1F)Nc1ccc2cc1OCCOCCNc1ccn3ncc-2c3n1 [compound 21] | 0,4 °C
4 | 0.4 °C | 0.3 °C | 1 °C | 2 °C | 0.7 °C | 5.6 °C | 0.4 °C | 1.1 °C | 5.7 °C | 2.2 °C | 1.8 °C | 2.8 °C | 1.2 °C | 1.8 °C | Cc1cc(Cl)ccc1CNC(=O)Nc1ccc2cc1OCCOCCNc1ccn3ncc-2c3n1 [compound 23] | 0,6 °C
5 | 0.2 °C | 0 °C | 1.4 °C | 1.4 °C | 2.3 °C | 5.4 °C | -0.2 °C | 1.2 °C | 8.6 °C | 2.8 °C | 1.8 °C | 0.5 °C | 1.9 °C | 2.6 °C | Cc1cc(Br)ccc1CNC(=O)Nc1ccc2cc1OCCOCCNc1ccn3ncc-2c3n1 [compound 24] | 0,1 °C
6 | 0.7 °C | 0.2 °C | -0.5 °C | -0.4 °C | 1.7 °C | 2.4 °C | 1.7 °C | 0.7 °C | 0.8 °C | 1.6 °C | 0.3 °C | 3.6 °C | -0.3 °C | 0.3 °C | CN1CCN(C(=O)Nc2ccc3cc2OCCOCCNc2ccn4ncc-3c4n2)CC1 [compound 35] | 0,1 °C
7 | 0.4 °C | 0.4 °C | 0.3 °C | 1 °C | 2 °C | 7.1 °C | 0.6 °C | 1.5 °C | 4.5 °C | 2.4 °C | 1.4 °C | 3.6 °C | 0.1 °C | 1.4 °C | O=C(NCc1ccc(Cl)cc1)Nc1ccc2cc1OCCOCCNc1ccn3ncc-2c3n1 [compound 19] | -0,4 °C
8 | 0.2 °C | 0.4 °C | 1.6 °C | 1.8 °C | 4 °C | 7 °C | -0.2 °C | 1.3 °C | 9.9 °C | 4.6 °C | 3 °C | 0.7 °C | 2.1 °C | 3.5 °C | O=C(NCc1ccccc1C(F)(F)F)Nc1ccc2cc1OCCOCCNc1ccn3ncc-2c3n1 [compound 27] | 0,1 °C
9 | 0.5 °C | 0.2 °C | 1.4 °C | 0.7 °C | 7.6 °C | 9.9 °C | 1.6 °C | 1.9 °C | 6.5 °C | 5.1 °C | 0.3 °C | 1.7 °C | 2.2 °C | 2 °C | COc1cc(CNC(=O)Nc2ccc3cc2OCCOCCNc2ccn4ncc-3c4n2)ccc1F [compound 33] | 0,1 °C
10 | 0.2 °C | 0.5 °C | 1.2 °C | 1.2 °C | 5.3 °C | 7.6 °C | 0.6 °C | 1.2 °C | 6.8 °C | -4.8 °C | 1.1 °C | 2.2 °C | 2 °C | 2.4 °C | COc1ccc(CNC(=O)Nc2ccc3cc2OCCOCCNc2ccn4ncc-3c4n2)cc1F [compound 32] | 0,2 °C
11 | 0.3 °C | 0.3 °C | 0.4 °C | 1.5 °C | 5.1 °C | 7.3 °C | 0 °C | 2 °C | 3.6 °C | 3 °C | 1.4 °C | 3.1 °C | 0.1 °C | 2.2 °C | O=C(NCc1cccc(Cl)c1)Nc1ccc2cc1OCCOCCNc1ccn3ncc-2c3n1 [compound 18] | 0,5 °C
